Test results reported in patent publication US20250281506A1, “APPLICATION OF HYDROXYPROGESTERONE CAPROATE IN ENHANCING TUMOR TREATMENT EFFECT” (SHENZHEN EVERGREEN THERAPEUTICS CO., LTD., priority 2021, published 2025).
“Also recorded” adds a separate entry of the source.

Legend:
CT26 tumor [1] = test: BALB/c mouse CT26 tumor model, tumor volume / tumor inhibition rate; format: in vivo, BALB/c mice; parameters: Tumor Inhibition Rate (Compared with Control Group): concentration or dose not given beside the values; settings: for Tumor Inhibition Rate (Compared with Control Group): CT26 model
Procedure: Female BALB/c mice aged 6-8 weeks with a body weight of approximately 20 grams were used. CT26 cells (5.0×106) dissolved in 100 μL of PBS were subcutaneously injected into BALB/c mice. When the tumor volume reached approximately 100 mm^3, the experimental animals were randomly divided into control and various treatment groups for the experiment.
Lenvatinib was administered orally once daily at a dosage of 10 mg/kg. Hydroxyprogesterone caproate was administered via intraperitoneal injection (abbreviated as i.p. in the table below) every two days. Anti-PD-1 antibody (RMP1-14), diluted in PBS, was administered every three days at a dosage of 200 μg per mouse.
Tumor size was measured using calipers twice a week for two-dimensional assessment. Tumor volume was calculated using the formula V=(X2Y)/2, where X and Y represent the shorter and longer diameters of the tumor, respectively, expressed in mm^3.

Renca tumor = test: BALB/c mouse Renca renal cell carcinoma tumor model, tumor inhibition rate; format: in vivo, BALB/c mice; parameters: Tumor Inhibition Rates (Compared with Control Group): concentration or dose not given beside the values; settings: for Tumor Inhibition Rates (Compared with Control Group): Renca model
Procedure: BALB/c female mice, aged 6-8 weeks and weighing around 20 grams, were utilized. Renca cells (3.0×106) dissolved in 100 μL PBS were subcutaneously injected into the BALB/c mice. Upon reaching a tumor volume of about 70 mm^3, experimental animals were randomly distributed into control and treatment groups.
Lenvatinib was administered orally once daily at a dosage of 7.5 mg/kg; hydroxyprogesterone caproate was administered intraperitoneally (abbreviated as i.p. in the table) every two days. Anti-PD-1 antibody (BioXCell, Supplier: Yicon (Beijing) Medical Technology Inc.) was diluted in PBS and administered every four days at a dose of 100 μg per mouse.
Tumor size was measured biweekly using calipers for two-dimensional measurements. The volume was calculated using the formula and expressed in mm^3: V=(X^2Y)/2, where X and Y represent the shorter and longer diameters of the tumor, respectively.

CT26 tumor [2] = test: BALB/c mouse CT26 tumor model with anti-PD-L1 antibody 10F.9G2; format: in vivo, BALB/c mice; settings: anti-PD-L1 10F.9G2
Procedure: Female BALB/c mice aged 6-8 weeks, weighing approximately 20 grams, were used. CT26 cells (5.0×106) dissolved in 100 μL PBS were subcutaneously injected into the BALB/c mice. When the tumor volume reached ˜100 mm^3, the experimental animals were randomly assigned to control and treatment groups, and drug administration commenced.
Lenvatinib (Eisai, Japan) was administered orally once daily at a dose of 10 mg/kg; Hydroxyprogesterone Caproate was administered via intraperitoneal injection every two days; 10F.9G2 was administered every three days at a dose of 200 μg/mouse. Drug administration continued for approximately 20 days.
2) Tumor volume was measured twice a week, and its size was calculated using the formula: […]

MC38/hPD-L1 tumor = test: Humanized PD-1 mouse MC38/hPD-L1 tumor model; format: in vivo, humanized PD-1 mice
Procedure: Humanized PD-1 mice, female, aged 6-8 weeks, weighing approximately 20 grams, were used. MC38/hPD-L1 cells (5.0×106) dissolved in 100 μL PBS were injected subcutaneously into the humanized PD-1 mice. Upon reaching a tumor volume of approximately ˜100 mm^3, experimental animals were randomly assigned to control and various treatment groups and subsequently initiated with drug administration.
Lenvatinib (Eisai, Japan) was administered orally once daily at a dose of 10 mg/kg. Hydroxyprogesterone Caproate was administered via intraperitoneal injection every two days. Pembrolizumab was administered every three days at a dose of 200 μg per mouse. The duration of drug administration lasted around 20 days.
2) Tumor volume measured twice weekly.

| Compound | Tumor suppression effect (in words) (CT26 tumor [1]; BALB/c mouse CT26 tumor model, HPC 20 mg/kg i.p., Lenvatinib 10 mg/kg p.o., RMP1-14 200 μg/mouse) | Tumor Inhibition Rate (Compared with Control Group) (CT26 tumor [1]; Day 0) [%] | Tumor Inhibition Rate (Compared with Control Group) (CT26 tumor [1]; Day 4) [%] | Tumor Inhibition Rate (Compared with Control Group) (CT26 tumor [1]; Day 7) [%] | Tumor Inhibition Rate (Compared with Control Group) (CT26 tumor [1]; Day 11) [%] | Tumor Inhibition Rate (Compared with Control Group) (CT26 tumor [1]; Day 14) [%] | Tumor Inhibition Rate (Compared with Control Group) (CT26 tumor [1]; Day 18) [%] | Tumor Inhibition Rate (Compared with Control Group) (CT26 tumor [1]; Day 20) [%] | Tumor suppression effect (in words) (Renca tumor; BALB/c mouse Renca tumor model) | Tumor Inhibition Rates (Compared with Control Group) (Renca tumor; Day 6) [%] | Tumor Inhibition Rates (Compared with Control Group) (Renca tumor; Day 9) [%] | Tumor Inhibition Rates (Compared with Control Group) (Renca tumor; Day 13) [%] | Tumor Inhibition Rates (Compared with Control Group) (Renca tumor; Day 16) [%] | Tumor Inhibition Rates (Compared with Control Group) (Renca tumor; Day 20) [%] | Anti-tumor effect (in words) (CT26 tumor [2]) | Anti-tumor effect (in words) (MC38/hPD-L1 tumor) |
| --- | --- | --- | --- | --- | --- | --- | --- | --- | --- | --- | --- | --- | --- | --- | --- | --- |
| CCCCCC(=O)O[C@]1(C(C)=O)CC[C@H]2[C@@H]3CCC4=CC(=O)CC[C@]4(C)[C@H]3CC[C@@]21C [HPC, Hydroxyprogesterone caproate] | did not exhibit a favorable tumor suppression effect; also recorded: promoting tumor growth | 0.00 | 3.66 | −14.89 | −13.61 | −31.32 | −47.15 | −37.09 | exhibits a certain degree of tumor suppression | 0.00 | 40.00 | 48.51 | 43.95 | 56.59 | did not exhibit significant tumor suppression | did not exhibit significant tumor inhibitory effects |
| COc1cc2nccc(Oc3ccc(NC(=O)NC4CC4)c(Cl)c3)c2cc1C(N)=O [Lenvatinib] | – | – | – | – | – | – | – | – | – | 0.00 | 22.92 | 48.51 | 55.37 | 70.68 | – | – |
